Measurements as given in the supplement of paper PMC10307832.

Columns and labels:
Assay in all cases: relative viability (nuclei count vs DMSO), 5 days (fraction); higher = more cells survive
[1] = system: 201T
Procedure, shortened: (§1)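 Lung cancer cell lines were pin-tool dosed in 1536-well plates on the day after seeding, with either a lone drug or a fixed anchor-drug dose plus five library-drug doses (not always all listed) in √10 steps. Nuclei were counted on 4× images after 5 days. Relative viability is the ratio of treated-well to vehicle-well nuclei counts, with each value a median of duplicate plates.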

[2] = system: BEN
Procedure, shortened: as §1

[3] = system: COR-L 105
Procedure, shortened: as §1

[4] = system: EKVX
Procedure, shortened: as §1

[5] = system: EPLC-272H
Procedure, shortened: as §1

[6] = system: H3255
Procedure, shortened: as §1

[7] = system: HCC-44
Procedure, shortened: as §1

[8] = system: HCC-827
Procedure, shortened: as §1

[9] = system: HOP-62
Procedure, shortened: as §1

[10] = system: LCLC-97TM1
Procedure, shortened: as §1

[11] = system: LOU-NH91
Procedure, shortened: as §1

[12] = system: LU99A
Procedure, shortened: as §1

[13] = system: NCI-H1395
Procedure, shortened: as §1

[14] = system: NCI-H1437
Procedure, shortened: as §1

[15] = system: NCI-H1666
Procedure, shortened: as §1

[16] = system: NCI-H1975
Procedure, shortened: as §1

[17] = system: NCI-H2085
Procedure, shortened: as §1

[18] = system: NCI-H2087
Procedure, shortened: as §1

[19] = system: NCI-H358
Procedure, shortened: as §1

[20] = system: NCI-H647
Procedure, shortened: as §1

[21] = system: PC-3 [JPC-3]
Procedure, shortened: as §1

[22] = system: SW 1573
Procedure, shortened: as §1

`C=C1C(=O)O[C@@H](CCCCCCCC)[C@@H]1C(=O)O` [C-75] + C[C@]1(O)C[C@@H](c2nc(-c3ccc4ccc(-c5ccccc5)nc4c3)c3c(N)nccn32)C1 [Linsitinib] (partner 1 µM) was tested, and the relative viability ([1]; first compound 0.08 µM) was 1.01, the relative viability ([1]; first compound 0.253 µM) was 1.06 and the relative viability ([1]; first compound 0.8 µM) was 1.1. For the same compound, the relative viability ([1]; first compound 2.53 µM) was 1.02, the relative viability ([1]; first compound 8 µM) was 1.1 and the relative viability ([2]; first compound 0.08 µM) was 0.847. For the same compound, the relative viability ([2]; first compound 0.253 µM) was 0.982, the relative viability ([2]; first compound 0.8 µM) was 0.937 and the relative viability ([2]; first compound 2.53 µM) was 0.873. For the same compound, the relative viability ([2]; first compound 8 µM) was 0.854, the relative viability ([3]; first compound 0.08 µM) was 0.993 and the relative viability ([3]; first compound 0.253 µM) was 0.928. It also gave a relative viability ([3]; first compound 0.8 µM) of 0.89, a relative viability ([3]; first compound 2.53 µM) of 0.946 and a relative viability ([3]; first compound 8 µM) of 0.886. The relative viability ([4]; first compound 0.08 µM) was 1.01, the relative viability ([4]; first compound 0.253 µM) was 1.05 and the relative viability ([4]; first compound 0.8 µM) was 0.906. It also gave a relative viability ([4]; first compound 2.53 µM) of 0.96, a relative viability ([4]; first compound 8 µM) of 0.908 and a relative viability ([5]; first compound 0.08 µM) of 1.05. It also gave a relative viability ([5]; first compound 0.253 µM) of 1.23, a relative viability ([5]; first compound 0.8 µM) of 1.07 and a relative viability ([5]; first compound 2.53 µM) of 0.976. For the same compound, the relative viability ([5]; first compound 8 µM) was 1.11, the relative viability ([6]; first compound 0.08 µM) was 0.868 and the relative viability ([6]; first compound 0.253 µM) was 1.13. The relative viability ([6]; first compound 0.8 µM) was 1.01, the relative viability ([6]; first compound 2.53 µM) was 0.895 and the relative viability ([6]; first compound 8 µM) was 1.16. For the same compound, the relative viability ([7]; first compound 0.08 µM) was 0.598, the relative viability ([7]; first compound 0.253 µM) was 0.633 and the relative viability ([7]; first compound 0.8 µM) was 0.618. It also gave a relative viability ([7]; first compound 2.53 µM) of 0.453, a relative viability ([7]; first compound 8 µM) of 0.667 and a relative viability ([8]; first compound 0.08 µM) of 0.884. The relative viability ([8]; first compound 0.253 µM) was 0.92, the relative viability ([8]; first compound 0.8 µM) was 1 and the relative viability ([8]; first compound 2.53 µM) was 0.972. It also gave a relative viability ([8]; first compound 8 µM) of 0.923, a relative viability ([9]; first compound 0.08 µM) of 0.944 and a relative viability ([9]; first compound 0.253 µM) of 0.894. The relative viability ([9]; first compound 0.8 µM) was 0.841, the relative viability ([9]; first compound 2.53 µM) was 0.843 and the relative viability ([9]; first compound 8 µM) was 0.875. It also gave a relative viability ([10]; first compound 0.08 µM) of 0.2, a relative viability ([10]; first compound 0.253 µM) of 0.309 and a relative viability ([10]; first compound 0.8 µM) of 0.177. For the same compound, the relative viability ([10]; first compound 2.53 µM) was 0.105, the relative viability ([10]; first compound 8 µM) was 0.18 and the relative viability ([11]; first compound 0.08 µM) was 1. The relative viability ([11]; first compound 0.253 µM) was 0.82, the relative viability ([11]; first compound 0.8 µM) was 0.875 and the relative viability ([11]; first compound 2.53 µM) was 0.859. For the same compound, the relative viability ([11]; first compound 8 µM) was 1.02, the relative viability ([12]; first compound 0.08 µM) was 0.571 and the relative viability ([12]; first compound 0.253 µM) was 0.598. For the same compound, the relative viability ([12]; first compound 0.8 µM) was 0.528, the relative viability ([12]; first compound 2.53 µM) was 0.412 and the relative viability ([12]; first compound 8 µM) was 0.464. The relative viability ([13]; first compound 0.08 µM) was 1.11, the relative viability ([13]; first compound 0.253 µM) was 1.05 and the relative viability ([13]; first compound 0.8 µM) was 1.12. For the same compound, the relative viability ([13]; first compound 2.53 µM) was 1.11, the relative viability ([13]; first compound 8 µM) was 1.25 and the relative viability ([14]; first compound 0.08 µM) was 1.03. The relative viability ([14]; first compound 0.253 µM) was 1, the relative viability ([14]; first compound 0.8 µM) was 1.04 and the relative viability ([14]; first compound 2.53 µM) was 1.01. It also gave a relative viability ([14]; first compound 8 µM) of 1.04, a relative viability ([15]; first compound 0.08 µM) of 0.79 and a relative viability ([15]; first compound 0.253 µM) of 1.01. For the same compound, the relative viability ([15]; first compound 0.8 µM) was 0.816, the relative viability ([15]; first compound 2.53 µM) was 0.858 and the relative viability ([15]; first compound 8 µM) was 0.644. It also gave a relative viability ([16]; first compound 0.08 µM) of 0.958, a relative viability ([16]; first compound 0.253 µM) of 1.02 and a relative viability ([16]; first compound 0.8 µM) of 0.945. The relative viability ([16]; first compound 2.53 µM) was 0.897, the relative viability ([16]; first compound 8 µM) was 0.898 and the relative viability ([17]; first compound 0.08 µM) was 0.935. For the same compound, the relative viability ([17]; first compound 0.253 µM) was 0.801, the relative viability ([17]; first compound 0.8 µM) was 0.88 and the relative viability ([17]; first compound 2.53 µM) was 0.806. It also gave a relative viability ([17]; first compound 8 µM) of 0.792, a relative viability ([18]; first compound 0.08 µM) of 1.24 and a relative viability ([18]; first compound 0.253 µM) of 0.898. For the same compound, the relative viability ([18]; first compound 0.8 µM) was 0.975, the relative viability ([18]; first compound 2.53 µM) was 0.867 and the relative viability ([18]; first compound 8 µM) was 1. The relative viability ([19]; first compound 0.08 µM) was 0.734, the relative viability ([19]; first compound 0.253 µM) was 0.823 and the relative viability ([19]; first compound 0.8 µM) was 0.7. The relative viability ([19]; first compound 2.53 µM) was 0.602, the relative viability ([19]; first compound 8 µM) was 0.737 and the relative viability ([20]; first compound 0.08 µM) was 1.18. For the same compound, the relative viability ([20]; first compound 0.253 µM) was 1.31, the relative viability ([20]; first compound 2.53 µM) was 0.903 and the relative viability ([20]; first compound 8 µM) was 0.823. The relative viability ([21]; first compound 0.08 µM) was 0.939, the relative viability ([21]; first compound 0.253 µM) was 0.933 and the relative viability ([21]; first compound 0.8 µM) was 0.951. The relative viability ([21]; first compound 2.53 µM) was 1.02, the relative viability ([21]; first compound 8 µM) was 1.09 and the relative viability ([22]; first compound 0.08 µM) was 0.819. It also gave a relative viability ([22]; first compound 0.253 µM) of 0.962, a relative viability ([22]; first compound 0.8 µM) of 0.833 and a relative viability ([22]; first compound 2.53 µM) of 0.615. The relative viability ([22]; first compound 8 µM) was 0.705.
